These compounds were tested on HBsAg secretion in HepG2.2.15 cells (assay: HBsAg assay (chemiluminescence immunoassay of secreted HBsAg in culture supernatant)). Conditions: HepG2.2.15 cells; concentration at which HBsAg secretion was reduced by 50% compared to the no drug control; read-out: IC50 (HBsAg assay).
Assay type: cell-based, HBV
Procedure: HepG2.2.15 cells (Acs et al. Proc Natl Acad Sci USA, 84, (1987), 4641-4), a constitutively HBV-expressing cell line were cultured in DMEM+Glutamax-I medium (Invitrogen, Carlsbad, Calif., USA), supplemented with 10% fetal bovine serum (Invitrogen) and G418 (Invitrogen) at a final concentration of 200 mg/L and maintained in 5% CO2 at 37° C.
HepG2.2.15 cells were seeded in duplicate into white, 96-well plates at 1.5×10^4 cells/well. The cells were treated with a three-fold serial dilution series of the compounds in DMSO. The final DMSO concentration in all wells was 1% and DMSO was used as no drug control.
The HBsAg chemiluminescence immunoassay (CLIA) kit (Autobio Diagnostics Co., Zhengzhou, China, Catalog number: CL0310-2) was used to measure the levels of secreted HBV antigens semi-quantitatively. For the detection 50 μL/well culture supernatant was used and HBsAg was quantified using HBsAg chemiluminescence immunoassay (CLIA) kit (Autobio Diagnostics Co., Zhengzhou, China, Catalog number: CL0310-2), 50 μL of the supernatant was transferred to the CLIA assay plate and 50 μL of enzyme conjugate reagent was added into each well. The plates were sealed and gently agitated for 1 hour at room temperature. The supernatant-enzyme-mixture was discarded and wells were washed 6 times with 300 μL of PBS. The residual liquid was removed by plating the CLIA plate […] on absorbent tissue paper. 25 μL of substrates A and B were added to each well. Luminance was measured using a luminometer (Mithras LB 940 Multimode Microplate Reader) after 10 minutes incubation. Dose-response curves were generated and the IC50 value was extrapolated by using the E-WorkBook Suite (ID Business Solutions Ltd., Guildford, UK). The IC50 was defined as the compound concentration (or conditioned media log dilution) at which HBsAg secretion was reduced by 50% compared to the no drug control.
The compounds according to formula I were tested for their capacity to inhibit HBsAg as described herein.

Which IC50 does the source give for COCCOc1cc(N2CCc3nc(-c4ccccn4)ncc3C2C)cc(F)c1F (centres unmarked) [Example 19, 6-[3,4-difluoro-5-(2-methoxyethoxy)phenyl]-5-methyl-2-(2-pyridyl)-7,8-dihydro-5H-pyrido[4,3-d]pyrimidine] here?
The IC50 was 42 nM.

How did the IC50 turn out when COc1cc(N2CCc3nc(-c4ncccn4)ncc3C2C)cc(Cl)c1F (centres unmarked) [Example 41, 6-(3-chloro-4-fluoro-5-methoxy-phenyl)-5-methyl-2-pyrimidin-2-yl-7,8-dihydro-5H-pyrido[4,3-d]pyrimidine] was run?
The IC50 was 38 nM.

For CC1c2cnc(-c3ncccn3)nc2CCN1c1cc(O)c(F)c(F)c1 (centres unmarked) [Example 44, 2,3-difluoro-5-(5-methyl-2-pyrimidin-2-yl-7,8-dihydro-5H-pyrido[4,3-d]pyrimidin-6-yl)phenol], which IC50 is on record?
The IC50 was 494 nM.

For CC1c2cnc(-c3ncccn3)nc2CCN1c1cc(F)c(F)c(OCCCS(C)(=O)=O)c1 (centres unmarked) [Example 47, 6-[3,4-difluoro-5-(3-methylsulfonylpropoxy)phenyl]-5-methyl-2-pyrimidin-2-yl-7,8-dihydro-5H-pyrido[4,3-d]pyrimidine], which IC50 is on record?
Its IC50 is 36 nM.

Same assay, conditions: Hepatitis B virus, HepG2.2.15, HepG2.2.15 cells; concentration at which HBsAg secretion was reduced by 50% compared to the no drug control; read-out: IC50 (HBsAg assay)

For CC1c2cnc(-c3ccccn3)nc2CCN1c1ccc(S(C)(=O)=O)cc1 (centres unmarked) [Example 23, 5-methyl-6-(4-methylsulfonylphenyl)-2-(2-pyridyl)-7,8-dihydro-5H-pyrido[4,3-d]pyrimidine], which IC50 is on record?
The IC50 was 1490 nM.

For CC1c2cnc(-c3ccccn3)nc2CCN1c1cc(F)c(F)c(OCCCCO)c1 (centres unmarked) [Example 24, 4-[2,3-difluoro-5-[5-methyl-2-(2-pyridyl)-7,8-dihydro-5H-pyrido[4,3-d]pyrimidin-6-yl]phenoxy]butan-1-ol], which IC50 is on record?
The IC50 was 29 nM.

Which IC50 does the source give for CC1c2cnc(-c3ccccn3)nc2CCN1c1cc(F)c(F)c(OCCCCCO)c1 (centres unmarked) [Example 25, 5-[2,3-difluoro-5-[5-methyl-2-(2-pyridyl)-7,8-dihydro-5H-pyrido[4,3-d]pyrimidin-6-yl]phenoxy]pentan-1-ol] here?
Its IC50 is 33 nM.

With CC1c2cnc(-c3ccccn3)nc2CCN1c1cc(F)c(F)c(OCCS(C)(=O)=O)c1 (centres unmarked) [Example 26, 6-[3,4-difluoro-5-(2-methylsulfonylethoxy)phenyl]-5-methyl-2-(2-pyridyl)-7,8-dihydro-5H-pyrido[4,3-d]pyrimidine] as the compound, how does the IC50 read?
The IC50 was 78 nM.

With COC(=O)COc1cc(N2CCc3nc(-c4ccccn4)ncc3C2C)cc(F)c1F (centres unmarked) [Example 27, methyl 2-[2,3-difluoro-5-[5-methyl-2-(2-pyridyl)-7,8-dihydro-5H-pyrido[4,3-d]pyrimidin-6-yl]phenoxy]acetate] as the compound, how does the IC50 read?
Its IC50 is 3430 nM.

CC1c2cnc(-c3ccccn3)nc2CCN1c1cc(F)c(F)c(OCC(=O)O)c1 (centres unmarked) [Example 28, 2-[2,3-difluoro-5-[5-methyl-2-(2-pyridyl)-7,8-dihydro-5H-pyrido[4,3-d]pyrimidin-6-yl]phenoxy]acetic acid] was tested. Which IC50 did it give?
The IC50 was 3080 nM.

For CC1c2cnc(-c3ccccn3)nc2CCN1c1cc(F)c(F)c(OCC(N)=O)c1 (centres unmarked) [Example 29, 2-[2,3-difluoro-5-[5-methyl-2-(2-pyridyl)-7,8-dihydro-5H-pyrido[4,3-d]pyrimidin-6-yl]phenoxy]acetamide], which IC50 is on record?
The IC50 was 50 nM.

For CC1c2cnc(-c3ccccn3)nc2CCN1c1cc(F)c(F)c(OCC(=O)N(C)C)c1 (centres unmarked) [Example 30, 2-[2,3-difluoro-5-[5-methyl-2-(2-pyridyl)-7,8-dihydro-5H-pyrido[4,3-d]pyrimidin-6-yl]phenoxy]-N,N-dimethyl-acetamide], which IC50 is on record?
Its IC50 is 96 nM.

For CC1c2cnc(-c3ccccn3)nc2CCN1c1cc(F)c(F)c(OCC(=O)N2CCCC2)c1 (centres unmarked) [Example 31, 2-[2,3-difluoro-5-[5-methyl-2-(2-pyridyl)-7,8-dihydro-5H-pyrido[4,3-d]pyrimidin-6-yl]phenoxy]-1-pyrrolidin-1-yl-ethanone], which IC50 is on record?
Its IC50 is 156 nM.

How did the IC50 turn out when CC1c2cnc(-c3ccccn3)nc2CCN1c1cc(F)c(F)c(OCCCN2CCOCC2)c1 (centres unmarked) [Example 32, 4-[3-[2,3-difluoro-5-[5-methyl-2-(2-pyridyl)-7,8-dihydro-5H-pyrido[4,3-d]pyrimidin-6-yl]phenoxy]propyl]morpholine] was run?
Its IC50 is 74 nM.

How did the IC50 turn out when CC1c2cnc(-c3ccccn3)nc2CCN1c1cc(F)c(F)c(OCCCS(C)(=O)=O)c1 (centres unmarked) [Example 33, 6-[3,4-difluoro-5-(3-methylsulfonylpropoxy)phenyl]-5-methyl-2-(2-pyridyl)-7,8-dihydro-5H-pyrido[4,3-d]pyrimidine] was run?
The IC50 was 48 nM.

For CC1c2cnc(-c3ccccn3)nc2CCN1c1cc(F)c(F)c(OCCCN)c1 (centres unmarked) [Example 34, 3-[2,3-difluoro-5-[5-methyl-2-(2-pyridyl)-7,8-dihydro-5H-pyrido[4,3-d]pyrimidin-6-yl]phenoxy]propan-1-amine], which IC50 is on record?
Its IC50 is 1710 nM.

How did the IC50 turn out when CC1c2cnc(-c3ccccn3)nc2CCN1c1cc(F)c(F)c(OCCCNS(C)(=O)=O)c1 (centres unmarked) [Example 35, N-[3-[2,3-difluoro-5-[5-methyl-2-(2-pyridyl)-7,8-dihydro-5H-pyrido[4,3-d]pyrimidin-6-yl]phenoxy]propyl]methanesulfonamide] was run?
Its IC50 is 46 nM.

For CCOC(=O)CC1c2cnc(-c3ccccn3)nc2CCN1c1cc(F)c(F)c(OC)c1 (centres unmarked) [Example 36, ethyl 2-[6-(3,4-difluoro-5-methoxy-phenyl)-2-(2-pyridyl)-7,8-dihydro-5H-pyrido[4,3-d]pyrimidin-5-yl]acetate], which IC50 is on record?
The IC50 was 39800 nM.

Which IC50 does the source give for COc1cc(N2CCc3nc(-c4ccccn4)ncc3C2CC(=O)O)cc(F)c1F (centres unmarked) [Example 37, 2-[6-(3,4-difluoro-5-methoxy-phenyl)-2-(2-pyridyl)-7,8-dihydro-5H-pyrido[4,3-d]pyrimidin-5-yl]acetic acid] here?
Its IC50 is 4860 nM.

Which IC50 does the source give for COc1cc(N2CCc3nc(-c4ccccn4)ncc3C2CCO)cc(F)c1F (centres unmarked) [Example 38, 2-[6-(3,4-difluoro-5-methoxy-phenyl)-2-(2-pyridyl)-7,8-dihydro-5H-pyrido[4,3-d]pyrimidin-5-yl]ethanol] here?
Its IC50 is 3360 nM.

Which IC50 does the source give for COc1cc(N2CCc3nc(-c4ccccn4)ncc3C2C[N+](=O)[O-])cc(F)c1F (centres unmarked) [Example 39, 6-(3,4-difluoro-5-methoxy-phenyl)-5-(nitromethyl)-2-(2-pyridyl)-7,8-dihydro-5H-pyrido[4,3-d]pyrimidine] here?
Its IC50 is 1340 nM.

Which IC50 does the source give for COc1cc(N2CCc3nc(-c4ncccn4)ncc3C2C)cc(F)c1Cl (centres unmarked) [Example 40, 6-(4-chloro-3-fluoro-5-methoxy-phenyl)-5-methyl-2-pyrimidin-2-yl-7,8-dihydro-5H-pyrido[4,3-d]pyrimidine] here?
The IC50 was 4860 nM.

Which IC50 does the source give for CC1c2cnc(-c3ncccn3)nc2CCN1c1cc(F)c(F)c(OCCCC(=O)O)c1 (centres unmarked) [Example 50, 4-[2,3-difluoro-5-(5-methyl-2-pyrimidin-2-yl-7,8-dihydro-5H-pyrido[4,3-d]pyrimidin-6-yl)phenoxy]butanoic acid] here?
The IC50 was 1130 nM.

How did the IC50 turn out when CC1c2cnc(-c3ncccn3)nc2CCN1c1cc(F)c(F)c(OCCC(=O)O)c1 (centres unmarked) [Example 51, 3-[2,3-difluoro-5-(5-methyl-2-pyrimidin-2-yl-7,8-dihydro-5H-pyrido[4,3-d]pyrimidin-6-yl)phenoxy]propanoic acid] was run?
Its IC50 is 2670 nM.

For CC1c2cnc(-c3ncccn3)nc2CCN1c1cc(F)c(F)c(OCCCC(N)=O)c1 (centres unmarked) [Example 52, 4-[2,3-difluoro-5-(5-methyl-2-pyrimidin-2-yl-7,8-dihydro-5H-pyrido[4,3-d]pyrimidin-6-yl)phenoxy]butanamide], which IC50 is on record?
Its IC50 is 110 nM.

Same assay, conditions: Hepatitis B virus, HepG2.2.15, read-out: IC50 (HBsAg assay)

For COc1cc(N2CCc3nc(-c4ncccn4)ncc3C2C)cc(F)c1C#N (centres unmarked) [Example 22, 2-fluoro-6-methoxy-4-(5-methyl-2-pyrimidin-2-yl-7,8-dihydro-5H-pyrido[4,3-d]pyrimidin-6-yl)benzonitrile], which IC50 is on record?
The IC50 was 27 nM.
